The values that follow come from patent US8629157B2, “Pyrrolidine compounds which modulate the CB2 receptor” (Boehringer Ingelheim International GmbH, priority 2009, dated 2014).

By EC50 is commonly meant the concentration at which the effect is half-maximal. The low end stands for higher potency in that assay, the high end for lower potency in that assay.

Structures are written as SMILES.

Chain of human CB2R (P34972 whole entry): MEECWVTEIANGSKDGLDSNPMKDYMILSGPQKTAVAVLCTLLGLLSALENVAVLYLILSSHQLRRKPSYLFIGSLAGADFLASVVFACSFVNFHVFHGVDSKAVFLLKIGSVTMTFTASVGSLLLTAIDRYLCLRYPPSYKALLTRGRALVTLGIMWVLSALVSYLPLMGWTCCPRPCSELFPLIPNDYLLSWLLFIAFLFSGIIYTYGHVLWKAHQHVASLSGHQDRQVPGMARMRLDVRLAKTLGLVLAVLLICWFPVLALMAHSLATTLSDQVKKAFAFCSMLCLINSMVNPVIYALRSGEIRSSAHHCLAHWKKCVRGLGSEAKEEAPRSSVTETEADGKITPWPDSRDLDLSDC

In the assay the target is human CB2R (Homo sapiens, UniProt P34972). Put plainly: CB2R mediated modulation of cAMP synthesis. In kind it is cell-based. An outline of the steps:
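CHO cells expressing human CB2R were treated 30 min at 37° C. with compounds in buffer containing 1 mM IBMX, 0.25% BSA and 10 uM forskolin; cAMP in lysates was measured by DiscoverX-XS kit.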
In the case of `COc1ccc(N2C(=O)CC[C@H]2C(=O)Nc2cc(C(C)(C)C)no2)cc1F` [(S)-1-(3-Fluoro-4-methoxy-phenyl)-5-oxo-pyrrolidine-2-carboxylic acid (3-tert-butyl-isoxazol-5-yl)-amide], the EC50 came to 314 nM. `CC(C)(C)c1cc(NC(=O)[C@@H]2CCCN2Cc2ccc(F)c(F)c2)on1` [(S)-1-(3,4-Difluoro-benzyl)-pyrrolidine-2-carboxylic acid (3-tert-butyl-isoxazol-5-yl)-amide] had an EC50 of 0.208 nM. `O=C(Nc1nc(-c2ccccc2)ns1)[C@@H]1C[C@@H](O)CN1CC1CCOCC1` [(2S,4R)-4-Hydroxy-1-(tetrahydro-pyran-4-ylmethyl)-pyrrolidine-2-carboxylic acid (3-phenyl-1,2,4-thiadiazol-5-yl)-amide] displayed an EC50 of 303 nM. As to `CC(C)N1CCCC1C(=O)Nc1cc(C(C)(C)C)on1` (stereo not shown) [1-isopropyl-pyrrolidine-2-carboxylic acid (5-tert-butyl-isoxazol-3-yl)-amide], the EC50 stood at 30.3 nM. As for `COCC(C)(C)c1cc(NC(=O)[C@@H]2C[C@@H](O)CN2c2ccc(Cl)cc2)no1` [(2S,4R)-1-(4-Chloro-phenyl)-4-hydroxy-pyrrolidine-2-carboxylic acid [5-(2-methoxy-1,1-dimethyl-ethyl)-isoxazol-3-yl]-amide], the figure is 80.9 nM; as for `CC(C)(C)c1cc(NC(=O)[C@@H]2CCC(=O)N2c2ccccn2)on1` [(S)-5-Oxo-1-pyridin-2-yl-pyrrolidine-2-carboxylic acid (3-tert-butyl-isoxazol-5-yl)-amide], 136 nM; as for `CC(C)(C)c1cc(NC(=O)[C@@H]2CCCN2CC2CCCOC2)on1` (stereo partly drawn) [(S)-1-(Tetrahydro-pyran-3-ylmethyl)-pyrrolidine-2-carboxylic acid (3-tert-butyl-isoxazol-5-yl)-amide], 0.376 nM. In turn, `COCC(C)(C)c1cc(NC(=O)[C@@H]2CCC(=O)N2c2ccc(Cl)cc2)no1` [(S)-l-(4-Chloro-phenyl)-5-oxo-pyrrolidine-2-carboxylic acid [5-(2-methoxy-1,1-dimethyl-ethyl)-isoxazol-3-yl]-amide] had a 50% effective concentration (EC50) of 86.1 nM.

As for `CC(C)(C)c1cc(NC(=O)[C@@H]2CCCN2C2CCC2)on1` [(S)-1-Cyclobutyl-pyrrolidine-2-carboxylic acid (3-tert-butyl-isoxazol-5-yl)-amide], the midpoint of the response, the EC50, lay at 6.28 nM. In the case of `O=C(Nc1nc(-c2ccccc2)ns1)[C@@H]1C[C@@H](O)CN1c1ccc(C(F)(F)F)cn1` [(2S,4R)-4-Hydroxy-1-(5-trifluoromethyl-pyridin-2-yl)-pyrrolidine-2-carboxylic acid (3-phenyl-1,2,4-thiadiazol-5-yl)-amide], the EC50 is 357 nM. In the case of `O=C(Nc1ccc(C(F)(F)F)c(F)c1)[C@@H]1CCCN1c1ccc(Cl)cc1` [(S)-1-(4-Chloro-phenyl)-pyrrolidine-2-carboxylic acid (3-fluoro-4-trifluoromethyl-phenyl)-amide], the concentration for a half-maximal effect (EC50) was found to be 30.4 nM. Regarding `O=C(Nc1nc2cc(Cl)ccc2[nH]1)[C@@H]1CCCN1CC1CCOCC1` [(S)-1-(Tetrahydro-pyran-4-ylmethyl)-pyrrolidine-2-carboxylic acid (5-chloro-1H-benzimidazol-2-yl)-amide], the EC50 amounted to 48.6 nM. Next, `O=C(NCCC1CCCCC1)[C@@H]1CCC(=O)N1c1ccc(Cl)cc1` [(S)-1-(4-Chloro-phenyl)-5-oxo-pyrrolidine-2-carboxylic acid (2-cyclohexyl-ethyl)-amide]: 334 nM; `CCCc1cc(NC(=O)[C@@H]2CCCN2c2ccc(Cl)cc2)on1` [(S)-1-(4-Chloro-phenyl)-pyrrolidine-2-carboxylic acid (3-propyl-isoxazol-5-yl)-amide]: 2.41 nM; `O=C(Nc1nc(-c2ccccc2)ns1)[C@@H]1CCCN1c1ccc(Cl)cc1` [(S)-1-(4-Chloro-phenyl)-pyrrolidine-2-carboxylic acid (3-phenyl-1,2,4-thiadiazol-5-yl)-amide]: 4.85 nM. Consider `O=C(Nc1ccc(C(F)(F)F)cn1)[C@H]1CCCN1c1ccc(C(F)(F)F)cc1` [(R)-1-(4-Trifluoromethyl-phenyl)-pyrrolidine-2-carboxylic acid (5-trifluoromethyl-pyridin-2-yl)-amide], for which the EC50 was 70.7 nM.

For `CC(C)(C)c1cc(NC(=O)[C@@H]2CC(=O)CN2c2ncc(C(F)(F)F)cc2Cl)no1` [(S)-1-(3-Chloro-5-trifluoromethyl-pyridin-2-yl)-4-oxo-pyrrolidine-2-carboxylic acid (5-tert-butyl-isoxazol-3-yl)-amide], a half-maximal effect (EC50) was put at 40.2 nM.

As to `CC(C)(C)c1cc(NC(=O)C2CCCN2c2ccc(Cl)cn2)no1` (stereo not shown) [1-(5-Chloro-pyridin-2-yl)-pyrrolidine-2-carboxylic acid (5-tert-butyl-isoxazol-3-yl)-amide], a half-maximal effect (EC50) was put at 0.364 nM. As to `CC(C)(C)c1cc(NC(=O)[C@@H]2CCC(=O)N2c2ccc(C#N)c(F)c2)no1` [(S)-1-(4-Cyano-3-fluoro-phenyl)-5-oxo-pyrrolidine-2-carboxylic acid (5-tert-butyl-isoxazol-3-yl)-amide], a half-maximal effect (EC50) was put at 78.5 nM. In turn, `CC(C)(C)c1cc(NC(=O)[C@@H]2CCC(=O)N2c2ccc(CF)cc2)on1` [(S)-1-(4-Fluoromethyl-phenyl)-5-oxo-pyrrolidine-2-carboxylic acid (3-tert-butyl-isoxazol-5-yl)-amide] came in with a concentration for a half-maximal effect (EC50) of 55.8 nM. The molecule `COc1ccc(N2C(=O)CC[C@H]2C(=O)Nc2cc(C(C)(C)C)no2)cc1` [(S)-1-(4-Methoxy-phenyl)-5-oxo-pyrrolidine-2-carboxylic acid (3-tert-butyl-isoxazol-5-yl)-amide] showed an EC50 of 163 nM.

As to `O=C(Nc1cccc(C(F)(F)F)n1)[C@@H]1CCCN1c1ccc(Cl)cc1` [(S)-1-(4-Chloro-phenyl)-pyrrolidine-2-carboxylic acid (6-trifluoromethyl-pyridin-2-yl)-amide], the EC50 worked out at 48.8 nM. In the case of `CC(C)(C)c1cc(NC(=O)[C@@H]2CCC(=O)N2c2ccc(Cl)cc2)sn1` [(S)-1-(4-Chloro-phenyl)-5-oxo-pyrrolidine-2-carboxylic acid (3-tert-butyl-isothiazol-5-yl)-amide], a half-maximal response (EC50) required 135 nM. As for `Cc1cc(N2C(=O)CC[C@H]2C(=O)Nc2cc(C(C)(C)C)no2)ccc1Cl` [(S)-1-(4-Chloro-3-methyl-phenyl)-5-oxo-pyrrolidine-2-carboxylic acid (3-tert-butyl-isoxazol-5-yl)-amide], the figure is 23.7 nM; as for `CC(C)(C)c1cc(NC(=O)[C@@H]2CCCN2CC2CC2)on1` [(S)-1-Cyclopropylmethyl-pyrrolidine-2-carboxylic acid (3-tert-butyl-isoxazol-5-yl)-amide], 11.4 nM; as for `CC(C)(C)c1cc(NC(=O)[C@@H]2CCCN2c2ncc(Cl)cc2Cl)on1` [(S)-1-(3,5-Dichloro-pyridin-2-yl)-pyrrolidine-2-carboxylic acid (3-tert-butyl-isoxazol-5-yl)-amide], 0.135 nM. As for `O=C(Nc1cc(C(F)(F)F)ccn1)[C@@H]1CCCN1c1ccc(Cl)cc1` [(S)-1-(4-Chloro-phenyl)-pyrrolidine-2-carboxylic acid (4-trifluoromethyl-pyridin-2-yl)-amide], the figure is 23.4 nM; as for `CC(C)(C)Cc1cc(NC(=O)[C@@H]2CCCN2C2CCOCC2)on1` [(S)-1-(Tetrahydro-pyran-4-yl)-pyrrolidine-2-carboxylic acid [3-(2,2-dimethyl-propyl)-isoxazol-5-yl]-amide], 14.9 nM.
